These are literature values, as cited in US20120231098A1, “Weight loss composition” (priority 2011, published 2012).

SMILES strings stand for the structures.

For the series the following is noted: by increasing the utilization of fat stores in the body during exercise.

As to `Cn1c(=O)c2c(ncn2C)n(C)c1=O` [Caffeine, caffeine], the increase in endurance is ≥ 15%.
